According to publication PMC9838390, “Discovery and biosynthesis of karnamicins as angiotensin converting enzyme inhibitors” (Nature Communications, 2023):

Experiment: Stability in enzyme reaction buffer
Type: physicochemical
Details: reaction buffer (50 mM Tris-HCl, pH 7.5, 30 °C)
Procedure: To further examine the catalytic role of methyltransferase KnmF and monooxygenases KnmB1 and KnmB2 during the karnamicin assembly process, we decided to characterize their enzyme activities in vitro. For KnmF, we synthesized 28 (Fig. 3, Supplementary Figs. 111–116, and Supplementary Table 19), a putative dedicated substrate of KnmF with a trihydroxypyridine core. Subsequently, a time course analysis of the enzyme-catalyzed reaction was performed with KnmF expressed by Escherichia coli BL21 (DE3) cells (Supplementary Fig. 117) and 28. Intriguingly, immediately following the consumption of 28, a compound 30 appeared. The subsequent decrease in abundance of 30 was accompanied by the accumulation of karnamicin E1 (1) (Fig. 4a). […]
The reaction of KnmF was carried out at 30 °C in a 100 µL system containing 50 mM Tris-HCl buffer (pH 7.5), 1 mM compound 28, 2 mM SAM, and 2 μM KnmF. […] After centrifugation (10 min at 13,523×g), the supernatant was analyzed by HPLC-DAD with solvent gradient as follows: T = 0 min, 55% B; T = 13.5 min, 55% B; T = 19 min, 65% B; T = 35 min, 65% B; T = 40 min, 100% B; T = 45 min, 100% B; T = 45.1 min, 55% B; T = 51 min, 55% B (A, H2O + 0.1% CH3COOH, v/v; B, MeCN), and the column temperature was 25 °C (Analytical method B).

With `CC(C)CCCCc1nc(-c2nc(C(N)=O)c(O)c(O)c2O)cs1` [Compound 28] the “stability in the reaction buffer” value was “degraded rapidly”.
